Experimental findings from patent US9796720B2, “Imidazole-derived modulators of the glucocorticoid receptor” (BRISTOL-MYERS SQUIBB COMPANY, priority 2013, dated 2017) are described below.

The term Ki denotes the equilibrium dissociation constant of an inhibitor or competing ligand from its target. By EC50 is commonly meant the concentration that produces a half-maximal response.

Experiment [1] addresses human full-length glucocorticoid receptor (Homo sapiens (Human), UniProt P04150). Kind of experiment: Glucocorticoid Receptor Binding Assay (II), fluorescence polarization competitor assay. As to conditions: recombinant human full-length GR cell lysate, Fluormone GS1; read-out: GR (Ki, nM) (measured in GR binding Assay II). On the procedure: Glucocorticoid Receptor Binding Assay (II)
In order to measure the binding of compounds on the glucocorticoid receptor a commercially available kit was used (Glucocorticoid receptor competitor assay kit, PanVera Co., Madison, Wis., P2816). Briefly, a cell lysate containing recombinantly expressed human full-length glucocorticoid receptor was mixed with a fluorescently labeled glucocorticoid (1 nM Fluormone GS1) in the presence or absence of test compound. After one hour at room temperature, the fluorescence polarization (FP) of the samples were measured.
On the technique in general: Polarisation of emitted light reports the rotation of a fluorescent probe.

For experiment [2], the system named is AP-1. Nature of the experiment: Cellular transrepressional assay (AP-1 luciferase reporter in A549 cells, PMA-activated). In kind it is cell-based. As to conditions: for EC50: read-out: AP-1 (EC50, nM) (measured in cellular transrepression assay); for Emax: read-out: AP-1 Max % inhibition (measured in cellular transrepression assay). The procedure: Cellular Transrepressional Assay
To measure the ability of test molecules to inhibit AP-1 induced transcriptional activity we utilized an A549 cell which was stably transfected with a plasmid containing 7×AP-1 DNA binding sites (pAP-1-Luc plasmid, Stratagene Co. La Jolla, Calif.) followed by the gene for luciferase. Cells were activated with 10 ng/ml of phorbol myristic acid (PMA) plus or minus test molecules for 7 hours. After 7 hours a luciferase reagent was added to measure luciferase enzymatic activity in the cell. After a 10 minute incubation of luciferase reagent with cells, luminescence was measured in a TOPCOUNT® luminescence counter. Repression of AP-1 activity was calculated as the percentage decrease in the signal induced by PMA alone. Test molecules were analyzed in the concentration range from 0.1 nM to 40 μM. EC50s were determined by using standard curve fitting methods such as Excel fit (Microsoft Co.). An EC50 is the test molecule concentration at which there is a 50% repression of the maximal inhibition of transcription, i.e., a 50% reduction of AP-1 activity.
For orientation: Reporter assays use an easily measured gene product as a stand-in for the process of interest.

Setting [3] is: A549 cells, 7xAP-1 luciferase, PMA 10 ng/ml, 7 hours.

Read-outs that look alike come from different tables or passages of the source.

Chain of human full-length glucocorticoid receptor (P04150 whole entry): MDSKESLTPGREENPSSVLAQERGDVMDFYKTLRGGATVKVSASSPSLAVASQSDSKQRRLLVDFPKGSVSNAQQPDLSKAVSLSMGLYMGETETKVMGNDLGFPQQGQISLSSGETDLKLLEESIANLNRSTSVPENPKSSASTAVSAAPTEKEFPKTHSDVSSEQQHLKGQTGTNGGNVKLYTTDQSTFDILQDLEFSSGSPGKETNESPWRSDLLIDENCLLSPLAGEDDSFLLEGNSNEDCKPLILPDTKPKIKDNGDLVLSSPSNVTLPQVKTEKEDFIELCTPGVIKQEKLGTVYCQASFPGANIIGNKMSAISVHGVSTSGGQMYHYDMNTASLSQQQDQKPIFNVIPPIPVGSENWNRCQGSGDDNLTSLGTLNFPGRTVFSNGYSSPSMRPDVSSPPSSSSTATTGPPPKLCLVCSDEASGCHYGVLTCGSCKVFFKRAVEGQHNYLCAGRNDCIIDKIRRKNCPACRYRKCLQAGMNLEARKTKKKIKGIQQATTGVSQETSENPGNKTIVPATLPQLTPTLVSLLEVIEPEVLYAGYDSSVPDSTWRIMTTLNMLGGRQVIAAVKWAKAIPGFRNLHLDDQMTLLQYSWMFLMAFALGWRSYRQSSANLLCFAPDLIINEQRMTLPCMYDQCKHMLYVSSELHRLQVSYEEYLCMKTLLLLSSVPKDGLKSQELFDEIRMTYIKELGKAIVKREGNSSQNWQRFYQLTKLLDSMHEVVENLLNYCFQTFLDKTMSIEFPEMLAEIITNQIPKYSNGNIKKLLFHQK

With `CC(C)(c1nc2nccnc2[nH]1)[C@@H]1c2ccc(-c3ccc(C(=O)N4CCOCC4)cc3)nc2Oc2c(F)cccc21` [Example 1, (S)-(4-(5-(2-(1H-Imidazo[4,5-b]pyrazin-2-yl)propan-2-yl)-9-fluoro-5H-chromeno[2,3-b]pyridin-2-yl)phenyl)(morpholino)methanone], the inhibitory constant (Ki) in experiment [1] worked out at 57 nM. Also, in experiment [2] (setting [3]), the concentration for a half-maximal effect (EC50) is 8.33 nM and the Emax turned out to be 65.2%.

As for `CC(=O)c1ccc(-c2ccc3c(n2)Oc2c(F)cccc2[C@@H]3C(C)(C)c2nc3nccnc3[nH]2)cc1` [Example 2, (S)-1-(4-(5-(2-(1H-Imidazo[4,5-b]pyrazin-2-yl)propan-2-yl)-9-fluoro-5H-chromeno[2,3-b]pyridin-2-yl)phenyl)ethanone], the Ki in experiment [1] came to 3.28 nM. Moreover, in experiment [2] (7 h), the EC50 amounted to 4.39 nM and the Emax was found to be 59.7%.

`CC(C)(O)c1ccc(-c2ccc3c(n2)Oc2c(F)cccc2[C@@H]3C(C)(C)c2nc3nccnc3[nH]2)cc1` [Example 3, (S)-2-(4-(5-(2-(1H-Imidazo[4,5-b]pyrazin-2-yl)propan-2-yl)-9-fluoro-5H-chromeno[2,3-b]pyridin-2-yl)phenyl)propan-2-ol]: the Ki in experiment [1] was determined as 2.35 nM. Further, in experiment [2] (setting [3]), the 50% effective concentration (EC50) is 3.85 nM and the Emax was determined as 65%.

As to `CN(C)C(=O)c1ccc(-c2ccc3c(n2)Oc2c(F)cccc2[C@@H]3C(C)(C)c2nc3nccnc3[nH]2)cc1` [Example 4, (S)-4-(5-(2-(1H-Imidazo[4,5-b]pyrazin-2-yl)propan-2-yl)-9-fluoro-5H-chromeno[2,3-b]pyridin-2-yl)-N,N-dimethylbenzamide], in experiment [1], the Ki is 2.63 nM. In experiment [2] (setting [3]), the 50% effective concentration (EC50) is 4.94 nM and the Emax was found to be 73.1%.

For the molecule `CC(C)(c1nc2nccnc2[nH]1)[C@@H]1c2ccc(-c3ccc(S(C)(=O)=O)cc3)nc2Oc2c(F)cccc21` [Example 5, (S)-5-(2-(1H-Imidazo[4,5-b]pyrazin-2-yl)propan-2-yl)-9-fluoro-2-(4-(methylsulfonyl)phenyl)-5H-chromeno[2,3-b]pyridine], the Ki in experiment [1] turned out to be 2.89 nM. Also, in experiment [2] (7 h), the EC50 amounted to 29.5 nM and the Emax came to 55.8%.

Consider `CCS(=O)(=O)c1ccc(-c2ccc3c(n2)Oc2c(F)cccc2[C@@H]3C(C)(C)c2nc3nccnc3[nH]2)cc1` [Example 6, (S)-5-(2-(1H-Imidazo[4,5-b]pyrazin-2-yl)propan-2-yl)-2-(4-(ethylsulfonyl)phenyl)-9-fluoro-5H-chromeno[2,3-b]pyridine], for which, in experiment [1], the Ki was 2.34 nM. Besides, in experiment [2] (setting [3]), the concentration for a half-maximal effect (EC50) was found to be 15.5 nM and the Emax was found to be 58.2%.

Regarding `CC(C)S(=O)(=O)c1ccc(-c2ccc3c(n2)Oc2c(F)cccc2[C@@H]3C(C)(C)c2nc3nccnc3[nH]2)cc1` [Example 7, (S)-5-(2-(1H-Imidazo[4,5-b]pyrazin-2-yl)propan-2-yl)-9-fluoro-2-(4-(isopropylsulfonyl)phenyl)-5H-chromeno[2,3-b]pyridine], the Ki in experiment [1] is 1.4 nM. In experiment [2] (7 h), the EC50 amounted to 12.2 nM and the Emax was 54.2%.

Regarding `CC(C)Oc1ccc(-c2ccc3c(n2)Oc2c(F)cccc2[C@@H]3C(C)(C)c2nc3nccnc3[nH]2)cc1` [Example 8, (S)-5-(2-(1H-Imidazo[4,5-b]pyrazin-2-yl)propan-2-yl)-9-fluoro-2-(4-isopropoxyphenyl)-5H-chromeno[2,3-b]pyridine], in experiment [1], the Ki turned out to be 0.76 nM. In addition, in experiment [2] (setting [3]), the EC50 turned out to be 9.82 nM and the Emax turned out to be 69.8%.

Regarding `CC(C)Oc1ccc(-c2ccc3c(n2)Oc2c(F)cccc2[C@@H]3C(C)(C)c2nc3nccnc3[nH]2)cc1Cl` [Example 9, (S)-5-(2-(1H-Imidazo[4,5-b]pyrazin-2-yl)propan-2-yl)-2-(3-chloro-4-isopropoxyphenyl)-9-fluoro-5H-chromeno[2,3-b]pyridine], in experiment [1], the inhibition constant (Ki) was 2.1 nM. Also, in experiment [2] (setting [3]), the EC50 was 291 nM and the Emax came out at 43.7%.

Turning to `CC(C)Oc1ccc(-c2ccc3c(n2)Oc2c(F)cccc2[C@@H]3C(C)(C)c2nc3nccnc3[nH]2)cc1F` [Example 10, (S)-5-(2-(1H-Imidazo[4,5-b]pyrazin-2-yl)propan-2-yl)-9-fluoro-2-(3-fluoro-4-isopropoxyphenyl)-5H-chromeno[2,3-b]pyridine], the Ki in experiment [1] was 0.67 nM. Moreover, in experiment [2] (setting [3]), the 50% effective concentration (EC50) is 20.1 nM and the Emax worked out at 70.2%.

Regarding `CC(C)(C)Oc1ccc(-c2ccc3c(n2)Oc2c(F)cccc2[C@@H]3C(C)(C)c2nc3nccnc3[nH]2)cc1` [Example 11, (S)-5-(2-(1H-Imidazo[4,5-b]pyrazin-2-yl)propan-2-yl)-2-(4-tert-butoxyphenyl)-9-fluoro-5H-chromeno[2,3-b]pyridine], the inhibition constant (Ki) in experiment [1] is 0.82 nM. Besides, in experiment [2] (7 h), the EC50 was determined as 37.5 nM and the Emax stood at 76.3%.

In the case of `CCOc1ccc(-c2ccc3c(n2)Oc2c(F)cccc2[C@@H]3C(C)(C)c2nc3nccnc3[nH]2)cc1` [Example 12, (S)-5-(2-(1H-Imidazo[4,5-b]pyrazin-2-yl)propan-2-yl)-2-(4-ethoxyphenyl)-9-fluoro-5H-chromeno[2,3-b]pyridine], the Ki in experiment [1] was found to be 0.66 nM. Moreover, in experiment [2] (setting [3]), the concentration giving a half-maximal response (EC50) came to 14.4 nM and the Emax stood at 62.6%.

For `CC(C)(c1nc2nccnc2[nH]1)[C@@H]1c2ccc(-c3ccc(OC(F)(F)F)cc3)nc2Oc2c(F)cccc21` [Example 13, (S)-5-(2-(1H-Imidazo[4,5-b]pyrazin-2-yl)propan-2-yl)-9-fluoro-2-(4-(trifluoromethoxy)phenyl)-5H-chromeno[2,3-b]pyridine], the Ki in experiment [1] was found to be 2.36 nM. For the same molecule, in experiment [2] (setting [3]), the half-maximal effective concentration (EC50) was 55.1 nM and the Emax stood at 55.5%.

With `CC(C)(c1nc2ccccc2[nH]1)[C@@H]1c2ccc(-c3ccc(C(=O)N4CCOCC4)cc3)nc2Oc2c(F)cccc21` [Example 14, (S)-(4-(5-(2-(1H-Benzo[d]imidazol-2-yl)propan-2-yl)-9-fluoro-5H-chromeno[2,3-b]pyridin-2-yl)phenyl)(morpholino)methanone], the Ki in experiment [1] turned out to be 16.1 nM. Moreover, in experiment [2] (setting [3]), the concentration giving a half-maximal response (EC50) stood at 284 nM and the Emax was determined as 31.6%.

On to `CC(C)(c1nc2cccnc2[nH]1)[C@@H]1c2ccc(-c3ccc(C(=O)N4CCOCC4)cc3)nc2Oc2c(F)cccc21` [Example 15, (S)-(4-(5-(2-(3H-Imidazo[4,5-b]pyridin-2-yl)propan-2-yl)-9-fluoro-5H-chromeno[2,3-b]pyridin-2-yl)phenyl)(morpholino)methanone], for which the Ki in experiment [1] turned out to be 121 nM. Further, in experiment [2] (setting [3]), the EC50 turned out to be 864 nM and the Emax is 29.3%.

`CC(C)(c1nc2cncnc2[nH]1)[C@@H]1c2ccc(-c3ccc(C(=O)N4CCOCC4)cc3)nc2Oc2c(F)cccc21` [Example 16, (S)-(4-(5-(2-(9H-Purin-8-yl)propan-2-yl)-9-fluoro-5H-chromeno[2,3-b]pyridin-2-yl)phenyl)(morpholino)methanone]: the Ki in experiment [1] was found to be 12.4 nM. Besides, in experiment [2] (setting [3]), the concentration giving a half-maximal response (EC50) was determined as 169 nM and the Emax was found to be 52.2%.

With `CC(C)(c1nc2cncnc2[nH]1)[C@@H]1c2ccc(-c3ccc(S(C)(=O)=O)cc3)nc2Oc2c(F)cccc21` [Example 17, (S)-5-(2-(9H-Purin-8-yl)propan-2-yl)-9-fluoro-2-(4-(methylsulfonyl)phenyl)-5H-chromeno[2,3-b]pyridine], the Ki in experiment [1] came to 65.8 nM. In experiment [2] (setting [3]), the EC50 stood at 2500 nM and the Emax is 27.3%.

As for `CC(C)(c1nc2nccnc2[nH]1)[C@@H]1c2ccc(-c3ccc(N4CCOCC4)cc3)nc2Oc2c(F)cccc21` [Example 18, (S)-5-(2-(1H-Imidazo[4,5-b]pyrazin-2-yl)propan-2-yl)-9-fluoro-2-(4-morpholinophenyl)-5H-chromeno[2,3-b]pyridine], the inhibition constant Ki in experiment [1] is 16 nM. For the same molecule, in experiment [2] (setting [3]), the EC50 was 61.1 nM and the Emax is 50.6%.

`CC(=O)Nc1ccc(-c2ccc3c(n2)Oc2c(F)cccc2[C@@H]3C(C)(C)c2nc3nccnc3[nH]2)cc1` [Example 19, (S)-N-(4-(5-(2-(1H-Imidazo[4,5-b]pyrazin-2-yl)propan-2-yl)-9-fluoro-5H-chromeno[2,3-b]pyridin-2-yl)phenyl)acetamide]: the inhibition constant Ki in experiment [1] is 70.5 nM. For the same molecule, in experiment [2] (setting [3]), the concentration for a half-maximal effect (EC50) was determined as 1950 nM and the Emax is 44.6%.

For `CC(C)(c1nc2nccnc2[nH]1)[C@@H]1c2ccc(-c3ccccc3)nc2Oc2c(F)cccc21` [Example 20, (S)-5-(2-(1H-Imidazo[4,5-b]pyrazin-2-yl)propan-2-yl)-9-fluoro-2-phenyl-5H-chromeno[2,3-b]pyridine], the inhibitory constant (Ki) in experiment [1] stood at 1.4 nM. Also, in experiment [2] (setting [3]), the concentration giving a half-maximal response (EC50) was found to be 14.2 nM and the Emax was found to be 40%.

As to `CC(C)(c1nc2nccnc2[nH]1)[C@@H]1c2ccc(-c3ccncc3)nc2Oc2c(F)cccc21` [Example 21, (S)-5-(2-(1H-Imidazo[4,5-b]pyrazin-2-yl)propan-2-yl)-9-fluoro-2-(pyridin-4-yl)-5H-chromeno[2,3-b]pyridine], in experiment [1], the Ki worked out at 3.92 nM. Moreover, in experiment [2] (setting [3]), the EC50 worked out at 21.1 nM and the Emax came out at 45.9%.
